From publication PMC12066977, “Alkyl Tail Variation on Chalcone‐Based Quaternary Pyridinium Salts as Rule‐of‐Thumb for Antimicrobial Activity” (Archiv Der Pharmazie, 2025)
pIC50: −log10 of the molar value. ≈ marks a conversion by molar mass, not a printed value.

How the values were obtained:
[1] = system: C. albicans ATCC 10231; assay: Broth microdilution antimicrobial assay (MIC, IC50); assay type: cell-based; conditions: Candida albicans, 24 h; for pIC50: ATCC10231, 50% growth inhibition, read-out: IC50 [95% confidence interval] Candida albicans; for MIC: ATCC10231, broth microdilution, 37°C
Method: (§1) Reference strains of Staphylococcus aureus (ATCC 25923), Escherichia coli (ATCC 25922), and Candida albicans (ATCC 10231) were used in this study as microbial models. These strains were purchased from the American Type Culture Collection (ATCC); bacterial cultures were routinely grown on 5% blood agar plate, while fungal cultures on Sabouraud Dextrose Agar (Biolife […]., Milan, Italy). […] In short, microbial inocula were prepared at 0.5 McFarland in PBS and, subsequently, bacterial suspensions were diluted 1:200 in Mueller-Hinton broth (Sigma-Aldrich, St. Louis, MO, USA), while fungal inoculum was diluted 1:20 in RPMI-1640 medium (Gibco®, ThermoFisher Scientific Inc., Waltham, MA, USA), containing glucose 2%, 0.3% levo-glutamine buffered to pH 7.0 with 0.165 M 3-(N-morpholino) propanesulfonic acid (MOPS). A total of 100 μL of these microbial suspensions was introduced into a 96-well microplate and incubated with 100 μL of the compounds, two-fold serially diluted in the range of 100-0.19 μM. Positive controls (microbial suspensions in regular media), negative controls (only compounds), and solvent controls (microbial suspensions incubated with DMSO dilutions) were included in the tests. The plate was incubated at 37°C for 24 h, and subsequently the optical density at 630 nm (OD630nm) was spectrophotometrically measured. Experiments were carried out in triplicate in three biological replicates. […] Statistical analysis was carried out by using GraphPad Prism version 9.4.1 for Windows (GraphPad Software, San Diego, California USA, www.graphpad.com). ^a MIC (Minimum Inhibitory Concentration) were determined in vitro by means of a standardized microdilution assay, in compliance with the Clinical and laboratory Standard Institute (CLSI) guidelines (30). Microbial suspensions were prepared at 0.5 McFarland in PBS, then diluted in the media and transferred in a 96 micro-well plate together with the serially 2-fold dilutions of the compounds. After 24h of incubation at 37°C, microbial growths were evaluated by measuring the Optical Density at 600 nm, then percentage values were obtained as relative to the positive controls (microbial suspensions in regular media).

[2] = system: S. aureus ATCC 25923; assay: as above; assay type: cell-based; conditions: Staphylococcus aureus; for pIC50: ATCC25923, 50% growth inhibition, 24 h, read-out: IC50 [95% confidence interval] Staphylococcus aureus; for MIC: ATCC25923, 24 h, broth microdilution, 37°C
Method: as §1

[3] = system: E. coli ATCC 25922; assay: as above; assay type: cell-based; conditions: Escherichia coli, 24 h; for MIC: ATCC25922, broth microdilution, 37°C; for pIC50: ATCC25922, 50% growth inhibition, read-out: IC50 [95% confidence interval] Escherichia coli
Method: as §1

[4] = Cell viability and proliferation assay (WST8/CCK-8); assay type: cell-based; conditions: African green monkey, Vero cells (ATCC CCL-81), 48 h treatment, CCK-8; read-out: CC50 [95% CI] Vero cells
Method: Vero cell line (ATCC CCL‐81) was selected as a model system to investigate the overall effect of chalcones on non‐malignant mammalian cells. […] For experiments, cells were seeded into 96‐well plates at 10^4 cells/well and incubated at 37°C for 24 h. Following washes with PBS, the cell monolayer was incubated with 100 µL of medium containing the twofold serial dilutions of the compounds. Both untreated cells and cells incubated with medium containing solvent dilutions were included in each experiment as controls. The cell viability was assessed by a WST8‐based assay according to the manufacturer's instructions (CCK‐8, Cell Counting Kit‐8, Dojindo Molecular Technologies, Rockville, MD, USA). After 48 h of incubation, culture medium was removed from each well, the monolayer was washed with PBS, and 100 µL of fresh medium containing 10 µL of CCK‐8 solution was added. Following a 2 h incubation at 37°C, the OD450nm was read, and data were expressed as the percentage of cell viability relative to the untreated controls. The CC50 was obtained on the corresponding dose–response curves generated as previously reported for IC50 values. Experiments were carried out in triplicate in three biological replicates.

[5] = system: E. coli; assay: Colistin association assay; assay type: cell-based, Escherichia coli; conditions: colistin at sub-inhibitory concentration (MIC/8 = 0.027 µM)
Method: This is a confirmation of the ability of these new QPySs to also affect Gram‐negative proliferation once they pass through the OM.
The dry powder of the chalcone‐based QPySs was resuspended in dimethylsulfoxide (DMSO) at 20 mM and used as stock solutions. For biological investigations, compounds were used in the range 100–0.78 µM, and the solvent in the corresponding percentage range. The following commercially available antimicrobials and toxic clinical drugs were purchased from Sigma‐Aldrich (St. Louis, MO, USA), dissolved in water, and used as reference controls. Gentamicin and ampicillin were used in the range 107.69–0.82 µM and 143.23–1.12 µM, respectively; the colistin was used at 0.03 µM in association with the chalcone‐based QASs with E. coli. The fluconazole was used in the assays with C. albicans in the range 3.27–0.03 µM. […]
In short, microbial inocula were prepared at 0.5 McFarland in PBS and, subsequently, bacterial suspensions were diluted 1:200 in Mueller–Hinton broth (Sigma‐Aldrich, St. Louis, MO, USA), while fungal inoculum was diluted 1:20 in RPMI‐1640 medium (Gibco®, ThermoFisher Scientific Inc., Waltham, MA, USA), containing glucose 2%, 0.3% levo‐glutamine buffered to pH 7.0 with 0.165 M 3‐(N‐morpholino) propanesulfonic acid (MOPS). […] The plate was incubated at 37°C for 24 h, and subsequently the optical density at 630 nm (OD630nm) was spectrophotometrically measured. […]

[6] = system: S. aureus ATCC 25923, E. coli ATCC 25922, C. albicans ATCC 10231; assay: Broth microdilution antimicrobial assay, statements pooled over the three strains; assay type: cell-based; conditions: stated for S. aureus, E. coli and C. albicans together; read-out: MIC toward the three selected strains
Method: The antimicrobial activity of the compounds was assessed by determining the Minimum Inhibitory Concentration (MIC) by a well‐established broth microdilution procedure in microtiter plates and in compliance with the Clinical and Laboratory Standards Institute (CLSI) guidelines.
In short, microbial inocula were prepared at 0.5 McFarland in PBS and, subsequently, bacterial suspensions were diluted 1:200 in Mueller–Hinton broth (Sigma‐Aldrich, St. Louis, MO, USA), while fungal inoculum was diluted 1:20 in RPMI‐1640 medium (Gibco®, ThermoFisher Scientific Inc., Waltham, MA, USA), containing glucose 2%, 0.3% levo‐glutamine buffered to pH 7.0 with 0.165 M 3‐(N‐morpholino) propanesulfonic acid (MOPS). A total of 100 µL of these microbial suspensions was introduced into a 96‐well microplate and incubated with 100 µL of the compounds, two‐fold serially diluted in the range of 100–0.19 µM. Positive controls (microbial suspensions in regular media), negative controls (only compounds), and solvent controls (microbial suspensions incubated with DMSO dilutions) were included in the tests. The plate was incubated at 37°C for 24 h, and subsequently the optical density at 630 nm (OD630nm) was spectrophotometrically measured. Experiments were carried out in triplicate in three biological replicates. […]

[7] = system: human red blood cells (hRBCs); assay: Hemolytic activity assay; assay type: cell-based; conditions: 25 µM, 90 min, 37°C
Method: The hemolytic activity of some selected compounds was evaluated as the amount of hemoglobin released by the disruption of human red blood cells (hRBCs). For the experiments, fresh hRBCs were collected by centrifugation at 1500g for 10 min, washed three times with PBS, and resuspended to a final concentration of 4% w/v hRBCs in PBS. Then, 100 µL of hRBCs suspension and an equal volume of the twofold dilutions of the antimicrobial peptides were mixed in a 96‐well plate and incubated for 90 min at 37°C. After centrifugation at 1000g for 5 min, the supernatants were transferred into a clear 96‐well plate, and OD405nm was read. Untreated hRBCs (incubated with PBS) and hRBCs incubated with 1% Triton X‐100 were employed as negative and positive controls, respectively. The hemolysis percentage was calculated as [OD405nm (sample) − OD4_05nm (negative control)]/[OD405nm (positive control) − OD405nm (negative control)] × 100. Minimal hemolytic concentrations (MHCs) were defined as the compound concentration causing 10% hemolysis. Three independent experiments were performed in triplicate.

Compound	pIC50 [1]	MIC [1] [µM]	pIC50 [2]	MIC [2] [µM]	MIC [3] [µM]	CC50 at 48 h [4] [µM]	MIC Escherichia coli in association with colistin [5] [µM]	MIC [6] [µM]	pIC50 [3]	hemolytic activity [7] [%]
C#CCOc1ccc(C(=O)/C=C/c2ccc[n+](CCCCCCCCCCCCCCCCCC)c2)c(OCC#C)c1 [Compound 8, (E)‐3‐{3‐[2,4‐Bis(prop‐2‐yn‐1‐yloxy)phenyl]‐3‐oxoprop‐1‐en‐1‐yl}‐1‐octadecylpyridin‐1‐ium bromide]	4.28	> 100	4.85	100	> 100	5.73				
COc1cccc2c1C(=O)c1c(O)c3c(c(O)c1C2=O)C[C@@](O)(C(=O)CO)C[C@@H]3O[C@H]1C[C@H](N)[C@H](O)[C@H](C)O1 [DOX, doxorubicin, reference compound]						70.6				
C#CCOc1ccc(C(=O)/C=C/c2ccc[n+](CCCCCC)c2)c(OCC#C)c1.[Br-] [Compound 2, (E)‐3‐{3‐[2,4‐Bis(prop‐2‐yn‐1‐yloxy)phenyl]‐3‐oxoprop‐1‐en‐1‐yl}‐1‐hexylpyridin‐1‐ium bromide]	4.16	100	4.46	50	> 100	> 100	50			
C#CCOc1ccc(C(=O)/C=C/c2ccc[n+](CCCCCCCCCCCCCCCC)c2)c(OCC#C)c1 [Compound 7, (E)‐3‐{3‐[2,4‐Bis(prop‐2‐yn‐1‐yloxy)phenyl]‐3‐oxoprop‐1‐en‐1‐yl}‐1‐hexadecylpyridin‐1‐ium]	5.24	6.25	5.38	12.5	> 100	5.38				
C#CCOc1ccc(C(=O)/C=C/c2ccc[n+](CCCCCC[n+]3cccc(/C=C/C(=O)c4ccc(OCC#C)cc4OCC#C)c3)c2)c(OCC#C)c1 [Compound 10, 1,1′‐(Hexane‐1,6‐diyl)bis{3‐[(E)‐3‐(2,4‐bis‐prop‐2‐yn‐1‐yloxyphenyl)‐3‐oxoprop‐1‐en‐1‐yl]pyridin‐1‐ium} bromide]	4.02	100	4.23	50	50	> 100		≥ 50	4.34	
C#CCOc1ccc(C(=O)/C=C/c2ccc[n+](CCCCCCCC)c2)c(OCC#C)c1 [Compound 3, (E)‐3‐{3‐[2,4‐Bis(prop‐2‐yn‐1‐yloxy)phenyl]‐3‐oxoprop‐1‐en‐1‐yl}‐1‐octylpyridin‐1‐ium bromide]	4.52	50	5.58	6.25	12.5	47			4.96	
C#CCOc1ccc(C(=O)/C=C/c2ccc[n+](CCCCCCCCCCCC)c2)c(OCC#C)c1.[Br-] [Compound 5, (E)‐3‐{3‐[2,4‐Bis(prop‐2‐yn‐1‐yloxy)phenyl]‐3‐oxoprop‐1‐en‐1‐yl}‐1‐dodecylpyridin‐1‐ium bromide]	5.80	3.12	5.79	3.12	6.25	14			5.23	40.9
CNC(C)C1CCC(N)C(OC2C(N)CC(N)C(OC3OCC(C)(O)C(NC)C3O)C2O)O1 (stereo not shown) [GEN, gentamicin, reference compound]			5.40	6.54 (≈ 3.12 µg/mL)	13.1 (≈ 6.25 µg/mL)				5.21	
OC(Cn1cncn1)(Cn1cncn1)c1ccc(F)cc1F [FLC, fluconazole, reference compound]	6.64	0.82 (≈ 0.251 µg/mL)								
